Laboratory results as given in PubChem BioAssay AID2060890 (Molecular Pharmacology Branch, DTP, NCI, 2025).

System: LG0703-F948-PDC complex spheroid viability
Test: Anticancer human tumor LG0703-F948-PDC patient-derived lung adenocarcinoma cell line growth inhibition [RAS]
Settings: for IC50: curve of first compound; for viability, T/C: stronger effect = lower value
In short: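 Multi-cell-type spheroids: tumor cells plus HUVEC endothelial cells and mesenchymal stem cells. RAS-pathway inhibitors were combined with targeted agents, each dosed in half-log steps down from clinical Cmax, or from 10 microM when Cmax was unknown.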
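Also: spheroids exposed to agents for 7 days.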
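For viability, T/C in this document: 100% = DMSO vehicle wells.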

Q: Which results are given for `CCc1c2c(nc3ccc(O)cc13)-c1cc3c(c(=O)n1C2)COC(=O)[C@]3(O)CC` + CCn1c(-c2cccnc2C(C)OC)c2c3cc(ccc31)N1CCOC(CC(NC(=O)C(C(C)C)N(C)C(=O)C3(F)CCN(C(=O)C#CC(C)(C)N(C)C)CC3)C(=O)N3CCCC(N3)C(=O)OCC(C)(C)C2)C1?
A: IC50 (second compound 0.000949 µM): 83.9 nM; IC50 (second compound 0.003 µM): 77 nM; IC50 (second compound 0.00949 µM): 63.7 nM; IC50 (second compound 0.03 µM): 51.8 nM; IC50 (second compound 0.0949 µM): 19.9 nM; IC50 (second compound 0.3 µM): < 0.949 nM; viability, T/C (second compound 0.000949 µM, first compound 0.000949 µM): 123%; viability, T/C (second compound 0.000949 µM, first compound 0.003 µM): 86.9%; viability, T/C (second compound 0.000949 µM, first compound 0.00949 µM): 103%; viability, T/C (second compound 0.000949 µM, first compound 0.03 µM): 66%; viability, T/C (second compound 0.000949 µM, first compound 0.0949 µM): 43.3%; viability, T/C (second compound 0.000949 µM, first compound 0.3 µM): 30.6%; viability, T/C (second compound 0.003 µM, first compound 0.000949 µM): 130%; viability, T/C (second compound 0.003 µM, first compound 0.003 µM): 102%; viability, T/C (second compound 0.003 µM, first compound 0.00949 µM): 103%; viability, T/C (second compound 0.003 µM, first compound 0.03 µM): 60.5%; viability, T/C (second compound 0.003 µM, first compound 0.0949 µM): 48.1%; viability, T/C (second compound 0.003 µM, first compound 0.3 µM): 30.3%; viability, T/C (second compound 0.00949 µM, first compound 0.000949 µM): 111%; viability, T/C (second compound 0.00949 µM, first compound 0.003 µM): 103%; viability, T/C (second compound 0.00949 µM, first compound 0.00949 µM): 104%; viability, T/C (second compound 0.00949 µM, first compound 0.03 µM): 62.4%; viability, T/C (second compound 0.00949 µM, first compound 0.0949 µM): 46.8%; viability, T/C (second compound 0.00949 µM, first compound 0.3 µM): 26%; viability, T/C (second compound 0.03 µM, first compound 0.000949 µM): 113%; viability, T/C (second compound 0.03 µM, first compound 0.003 µM): 93.9%; viability, T/C (second compound 0.03 µM, first compound 0.00949 µM): 87.5%; viability, T/C (second compound 0.03 µM, first compound 0.03 µM): 56%; viability, T/C (second compound 0.03 µM, first compound 0.0949 µM): 40.4%; viability, T/C (second compound 0.03 µM, first compound 0.3 µM): 27.4%; viability, T/C (second compound 0.0949 µM, first compound 0.000949 µM): 85.7%; viability, T/C (second compound 0.0949 µM, first compound 0.003 µM): 91.2%; viability, T/C (second compound 0.0949 µM, first compound 0.00949 µM): 63.3%; viability, T/C (second compound 0.0949 µM, first compound 0.03 µM): 42.7%; viability, T/C (second compound 0.0949 µM, first compound 0.0949 µM): 27.1%; viability, T/C (second compound 0.0949 µM, first compound 0.3 µM): 22.9%; viability, T/C (second compound 0.3 µM, first compound 0.000949 µM): 44%; viability, T/C (second compound 0.3 µM, first compound 0.003 µM): 49.9%; viability, T/C (second compound 0.3 µM, first compound 0.00949 µM): 46.3%; viability, T/C (second compound 0.3 µM, first compound 0.03 µM): 25.8%; viability, T/C (second compound 0.3 µM, first compound 0.0949 µM): 19.2%; viability, T/C (second compound 0.3 µM, first compound 0.3 µM): 14.1%

Q: Which IC50 (second compound 0.0316 µM) does the source give for `CC(Nc1ccc2c(c1)OCCn1cc(N3C(=O)OCC3C(F)F)nc1-2)C(N)=O` (stereo unspecified) + C#Cc1c(F)ccc2cc(O)cc(-c3ncc4c(N5CC6CCC(C5)N6)nc(OCC56CCCN5CC(F)C6)nc4c3F)c12 here?
A: 1610 nM

Q: What about the IC50 (second compound 0.1 µM) of the same compound?
A: 1520 nM

Q: And the IC50 (second compound 0.316 µM)?
A: 903 nM

Q: What about the IC50 (second compound 1 µM) of the same compound?
A: 381 nM

Q: And the IC50 (second compound 3.16 µM)?
A: 62 nM

Q: What about the IC50 (second compound 10 µM) of the same compound?
A: < 31.6 nM

Q: And the viability, T/C (second compound 0.0316 µM, first compound 0.0316 µM)?
A: 96%

Q: And the viability, T/C (second compound 0.0316 µM, first compound 0.1 µM)?
A: 88.5%

Q: And the viability, T/C (second compound 0.0316 µM, first compound 0.316 µM)?
A: 76.3%

Q: And the viability, T/C (second compound 0.0316 µM, first compound 1 µM)?
A: 56.4%

Q: And the viability, T/C (second compound 0.0316 µM, first compound 3.16 µM)?
A: 39.9%

Q: And the viability, T/C (second compound 0.0316 µM, first compound 10 µM)?
A: 21.6%

Q: What about the viability, T/C (second compound 0.1 µM, first compound 0.0316 µM) of the same compound?
A: 80.7%

Q: And the viability, T/C (second compound 0.1 µM, first compound 0.1 µM)?
A: 81%

Q: What about the viability, T/C (second compound 0.1 µM, first compound 0.316 µM) of the same compound?
A: 66.5%

Q: And the viability, T/C (second compound 0.1 µM, first compound 1 µM)?
A: 56.3%

Q: And the viability, T/C (second compound 0.1 µM, first compound 3.16 µM)?
A: 39.7%

Q: What about the viability, T/C (second compound 0.1 µM, first compound 10 µM) of the same compound?
A: 19.5%

Q: And the viability, T/C (second compound 0.316 µM, first compound 0.0316 µM)?
A: 78.1%

Q: What about the viability, T/C (second compound 0.316 µM, first compound 0.1 µM) of the same compound?
A: 71%

Q: And the viability, T/C (second compound 0.316 µM, first compound 0.316 µM)?
A: 59.9%

Q: And the viability, T/C (second compound 0.316 µM, first compound 1 µM)?
A: 50.8%

Q: What about the viability, T/C (second compound 0.316 µM, first compound 3.16 µM) of the same compound?
A: 32%

Q: What about the viability, T/C (second compound 0.316 µM, first compound 10 µM) of the same compound?
A: 12.5%

Q: And the viability, T/C (second compound 1 µM, first compound 0.0316 µM)?
A: 77.7%

Q: And the viability, T/C (second compound 1 µM, first compound 0.1 µM)?
A: 71.2%

Q: And the viability, T/C (second compound 1 µM, first compound 0.316 µM)?
A: 52.7%

Q: And the viability, T/C (second compound 1 µM, first compound 1 µM)?
A: 32.2%

Q: What about the viability, T/C (second compound 1 µM, first compound 3.16 µM) of the same compound?
A: 17.6%

Q: What about the viability, T/C (second compound 1 µM, first compound 10 µM) of the same compound?
A: 9.15%

Q: And the viability, T/C (second compound 3.16 µM, first compound 0.0316 µM)?
A: 54.1%

Q: And the viability, T/C (second compound 3.16 µM, first compound 0.1 µM)?
A: 47.5%

Q: What about the viability, T/C (second compound 3.16 µM, first compound 0.316 µM) of the same compound?
A: 34%

Q: And the viability, T/C (second compound 3.16 µM, first compound 1 µM)?
A: 18.7%

Q: And the viability, T/C (second compound 3.16 µM, first compound 3.16 µM)?
A: 12.7%

Q: And the viability, T/C (second compound 3.16 µM, first compound 10 µM)?
A: 4.54%

Q: What about the viability, T/C (second compound 10 µM, first compound 0.0316 µM) of the same compound?
A: 48.1%

Q: What about the viability, T/C (second compound 10 µM, first compound 0.1 µM) of the same compound?
A: 31%

Q: And the viability, T/C (second compound 10 µM, first compound 0.316 µM)?
A: 15.2%

Q: And the viability, T/C (second compound 10 µM, first compound 1 µM)?
A: 7.38%

Q: What about the viability, T/C (second compound 10 µM, first compound 3.16 µM) of the same compound?
A: 4.96%

Q: And the viability, T/C (second compound 10 µM, first compound 10 µM)?
A: 2.4%

Q: `O=C(c1ccc(F)c(F)c1Nc1ccc(I)cc1F)N1CC(O)([C@@H]2CCCCN2)C1` + CCn1c(-c2cccnc2C(C)OC)c2c3cc(ccc31)N1CCOC(CC(NC(=O)C(C(C)C)N(C)C(=O)C3(F)CCN(C(=O)C#CC(C)(C)N(C)C)CC3)C(=O)N3CCCC(N3)C(=O)OCC(C)(C)C2)C1 was tested. Which IC50 (second compound 0.000949 µM) did it give?
A: 79.9 nM

Q: What about the IC50 (second compound 0.003 µM) of the same compound?
A: 63.9 nM

Q: What about the IC50 (second compound 0.00949 µM) of the same compound?
A: 87.3 nM

Q: And the IC50 (second compound 0.03 µM)?
A: 65.1 nM

Q: And the IC50 (second compound 0.0949 µM)?
A: 22.7 nM

Q: What about the IC50 (second compound 0.3 µM) of the same compound?
A: < 3.16 nM

Q: What about the viability, T/C (second compound 0.000949 µM, first compound 0.00316 µM) of the same compound?
A: 93.7%

Q: What about the viability, T/C (second compound 0.000949 µM, first compound 0.01 µM) of the same compound?
A: 93.3%

Q: What about the viability, T/C (second compound 0.000949 µM, first compound 0.0316 µM) of the same compound?
A: 64.2%

Q: And the viability, T/C (second compound 0.000949 µM, first compound 0.1 µM)?
A: 48.2%

Q: And the viability, T/C (second compound 0.000949 µM, first compound 0.316 µM)?
A: 33.4%

Q: And the viability, T/C (second compound 0.000949 µM, first compound 1 µM)?
A: 28.2%

Q: And the viability, T/C (second compound 0.003 µM, first compound 0.00316 µM)?
A: 97.1%

Q: What about the viability, T/C (second compound 0.003 µM, first compound 0.01 µM) of the same compound?
A: 79.8%

Q: What about the viability, T/C (second compound 0.003 µM, first compound 0.0316 µM) of the same compound?
A: 60.5%

Q: And the viability, T/C (second compound 0.003 µM, first compound 0.1 µM)?
A: 40.7%

Q: What about the viability, T/C (second compound 0.003 µM, first compound 0.316 µM) of the same compound?
A: 38.4%

Q: What about the viability, T/C (second compound 0.003 µM, first compound 1 µM) of the same compound?
A: 27.2%

Q: And the viability, T/C (second compound 0.00949 µM, first compound 0.00316 µM)?
A: 87.3%

Q: And the viability, T/C (second compound 0.00949 µM, first compound 0.01 µM)?
A: 88.3%

Q: And the viability, T/C (second compound 0.00949 µM, first compound 0.0316 µM)?
A: 70%

Q: And the viability, T/C (second compound 0.00949 µM, first compound 0.1 µM)?
A: 46.9%

Q: What about the viability, T/C (second compound 0.00949 µM, first compound 0.316 µM) of the same compound?
A: 30.6%

Q: What about the viability, T/C (second compound 0.00949 µM, first compound 1 µM) of the same compound?
A: 21.6%

Q: What about the viability, T/C (second compound 0.03 µM, first compound 0.00316 µM) of the same compound?
A: 96.2%

Q: What about the viability, T/C (second compound 0.03 µM, first compound 0.01 µM) of the same compound?
A: 76.1%

Q: What about the viability, T/C (second compound 0.03 µM, first compound 0.0316 µM) of the same compound?
A: 60.9%

Q: And the viability, T/C (second compound 0.03 µM, first compound 0.1 µM)?
A: 42.7%

Q: And the viability, T/C (second compound 0.03 µM, first compound 0.316 µM)?
A: 33.1%

Q: What about the viability, T/C (second compound 0.03 µM, first compound 1 µM) of the same compound?
A: 21.9%

Q: What about the viability, T/C (second compound 0.0949 µM, first compound 0.00316 µM) of the same compound?
A: 69.4%

Q: And the viability, T/C (second compound 0.0949 µM, first compound 0.01 µM)?
A: 61%

Q: And the viability, T/C (second compound 0.0949 µM, first compound 0.0316 µM)?
A: 44.2%

Q: What about the viability, T/C (second compound 0.0949 µM, first compound 0.1 µM) of the same compound?
A: 33.5%

Q: And the viability, T/C (second compound 0.0949 µM, first compound 0.316 µM)?
A: 20.9%

Q: And the viability, T/C (second compound 0.0949 µM, first compound 1 µM)?
A: 12.4%

Q: What about the viability, T/C (second compound 0.3 µM, first compound 0.00316 µM) of the same compound?
A: 41.6%

Q: And the viability, T/C (second compound 0.3 µM, first compound 0.01 µM)?
A: 35.4%

Q: What about the viability, T/C (second compound 0.3 µM, first compound 0.0316 µM) of the same compound?
A: 24%

Q: What about the viability, T/C (second compound 0.3 µM, first compound 0.1 µM) of the same compound?
A: 13.1%

Q: And the viability, T/C (second compound 0.3 µM, first compound 0.316 µM)?
A: 13.1%

Q: What about the viability, T/C (second compound 0.3 µM, first compound 1 µM) of the same compound?
A: 5.27%
